Measurements published in patent US12457954B2, “Sorghum plants having a mutant polynucleotide encoding the large subunit of mutated acetohydroxyacid synthase protein and increased resistance to herbicides” (Advanta Holdings BV, priority 2012, dated 2025).

Columns and labels:
Assay type in all cases: in vivo, Sorghum bicolor
[1] = system: endogamic Sorghum line 80237; test: Field spraying with imidazolinone herbicides, dry matter of aerial tissues, wild-type line; details: 10 days after spraying, mean of 3 experiments
Experimental: (§1) Subsequently, the effect to herbicide spraying on mutant imidazolinone-resistant plants ADV-IMI-R (original mutation) was compared to the response of endogamic Sorghum line 80237 (Advanta proprietary elite line). To that end, plants were treated on the field with three herbicides belonging to the imidazolinone family: imazethapyr, imazapir, and imazapic. Four different rates were assayed: 1×, 2×, 3×, and 4× for each of the herbicides.
(§2) Ten days after spraying, all plants were assayed for dry matter (DM) in aerial tissues.
(§3) The response of the ADV-IMI-R mutant of the invention was compared to that of endogamic line 80237. […] The disclosed values are the average of three experiments.
(§4) Sorghum line 80237 (Advanta's proprietary elite line) and imidazolinone-resistant ADV-IMI-R mutant of the present invention (original mutation) were sprayed on the field with three herbicides from the group of imidazolinones: imazethapyr, imazapyr, and imazapic. Four different rates were assayed for each of the herbicides: 1×, 2×, 3×, and 4× (being 1× the recommended application rate) (see Table 1 above):
(§5) Field experiments were carried out in Venado Tuerto, and planting took place on Dec. 1, 2010. The herbicide was sprayed 20 days after emergence (stage V6). All treatments were compared to their respective untreated controls. The experimental design consisted of plots divided into 3 replicates (main plot: treatment with herbicide; sub-plots: line).
(§6) Ten days after spraying, all plants were assayed for dry matter (DM) in aerial tissues. Herbicide response was assessed as a DM percentage in aerial tissue of the respective untreated control.
(§7) Thus, the line sensitive to herbicides i for each rate j was expressed as:
(§8) [formula] • DMij % Control is the mean value of 3 experiments for each treatment from each line.

[2] = system: ADV-IMI-R mutant Sorghum line; test: Field spraying with imidazolinone herbicides, dry matter of aerial tissues, resistant mutant; details: for DM % Control: ADV-IMI-R, 10 days after spraying, mean of 3 experiments; for Response of ADV-IMI-R mutant to herbicide: field spraying, even at a rate of 4×
Experimental: as §1, §2, §3, §4, §5, §6, §7, §8

[3] = system: ADV-IMI-R × 90523 F2 progeny; test: Phenotypic rating of segregating F2 population after spraying with imazethapyr; details: rate 3X
Experimental: Inheritance of resistance to imidazolinones, for example imazethapyr, was assessed in a segregating F2 Sorghum population generated by crossing an imazethapyr susceptible line with the ADV-IMI-R mutant. The F2 plants thus obtained were sprayed with imazethapyr (Pivot®, BASF) at a rate of 3×, 20 days in stage V6 after emergence and phenotypic symptoms were assessed 10 days after treatment.
The correlation between resistance phenotypes and the number of mutant alleles was analyzed using the SNP-SbAHAS marker. To that end, chlorosis and death phenotypes of individual plants from the F2 progeny (ADV-IMI-R×90523) were studied after spraying with imazethapyr. Concomitantly, the genotype of the SNP-SbAHAS marker was studied. The correlation between the molecular marker SNP-SbAHAS and resistance to imazethapyr (measured as a rating of phenotypes) was determined using the Chi-square Independence test.
A targeted crossing was carried out between Sorghum line 90523 (Advanta proprietary elite line, susceptible to imidazolinones) and the imidazolinone-resistant ADV-IMI-R mutant (VT09-9754-48-6-BK selection). The resulting F1 plants were auto-pollinated and F2 seeds were harvested. The F2 seeds were planted in the field in Venado Tuerto, in October 2010. The F2 plants (177 plants) were sprayed with imazethapyr (Pivot®, BASF) at a rate of 3× (where 1× is the rate recommended by the manufacturer for commercial use which is equivalent to 100 ml a.i./ha). Before spraying, leaf tissue from each of the 177 F2 plants from both ADV-IMI-R mutant (VT09-9754-48-6-BK selection) and wild-type line 90523 were collected to isolate genomic DNA, which was resuspended in water at a final concentration of 100 ng/μl for use in genotypic analysis.
Herbicide was sprayed 20 days after emergence (stage V6). The plants were assessed ten days after spraying, and the herbicidal effect was classified into three categories by visually assessed symptoms according to the following phenotypic scoring: • 1=no damage • 2=chlorotic • 3=death
Individual F2 progeny plants obtained by a ADV-IMI-R×90523 crossing were phenotypically classified (no damage, chlorosis and death) after spraying with imazethapyr (using the method of Example 4) and then genotypically classified using the molecular marker SNP-SbAHAS which is specific of the induced mutation in AHAS (using the method described in Example 5).

[4] = 10 days after treatment, 177 F2 plants

SMILES | DM % Control ([1]; rate 1X) | DM % Control ([1]; rate 2X) | DM % Control ([1]; rate 3X) | DM % Control ([1]; rate 4X) | DM % Control ([2]; rate 1X) | DM % Control ([2]; rate 2X) | DM % Control ([2]; rate 3X) | DM % Control ([2]; rate 4X) | Response of ADV-IMI-R mutant to herbicide [2] | Amount of F2 progeny, phenotype Chlorotic (rating 2) [3, 4] | Amount of F2 progeny, phenotype Death (rating 3) [3, 4] | Amount of F2 progeny, phenotype No damage (rating 1) [3, 4] | Amount of F2 individuals, genotype A/G, phenotype Chlorotic ([3]; heterozygous) | Amount of F2 individuals, genotype A/G, phenotype No damage ([3]; heterozygous) | Amount of F2 individuals, genotype A/A, phenotype Chlorotic ([3]; homozygous AHAS mutant) | Amount of F2 individuals, genotype A/A, phenotype No damage ([3]; homozygous AHAS mutant) | Amount of F2 individuals, genotype G/G, phenotype Death ([3]; wild-type homozygous)
Cc1cnc(C2=NC(=O)C(C)(C(C)C)N2)c(C(=O)O)c1 (centres unmarked) [Imazapic] | 22% | 13% | 15% | 28% | 161% | 123% | 244% | 272% | resistant |  |  |  |  |  |  |  | 
CC(C)C1(C)N=C(c2ncccc2C(=O)O)NC1=O (centres unmarked) [Imazapyr] | 14% | 21% | 14% | 19% | 139% | 140% | 235% | 191% | resistant |  |  |  |  |  |  |  | 
CCc1cnc(C2=NC(C)(C(C)C)C(=O)N2)c(C(=O)O)c1 (centres unmarked) [Imazethapyr] | 17% | 12% | 14% | 23% | 162% | 175% | 263% | 273% | resistant | 84 | 43 | 50 | 83 | 13 | 1 | 37 | 43
